According to patent publication US9814731B2, “Method for the induction of phase 2 related genes in a mammal comprising administering exemestane” (THE JOHNS HOPKINS UNIVERSITY, priority 2013, dated 2017):
pIC50: −log10 of the molar value.

Key:
NQO1 [1] = test: NQO1 assay in murine hepatoma Hepa1c1c7 cells; assay type: cell-based; conditions: for CD value (concentration required to double the specific activity of NQO1): 48 hours exposure; for inducer activity for NQO1: concentrations up to 20 μM
Method: (§1) Cells (10,000 per well) were grown in 96-well plates for 24 hours, then exposed to serial dilutions of inducers for 48 hours, and lysed in 0.08% digitonin. Enzymatic activity of NQ01 in cell lysates was determined with menadione as a substrate (Anal Biochem 169: 328-336 (1988), Methods Enzymol 382(B): 243-258 (2004)). The concentrations required to double the specific activity of NQO1 (CD values) were used to quantify inducer potency.

NQO1 [2] = test: NQO1 assay in murine 308 keratinocytes; assay type: cell-based; conditions: 308 cells, 48 hours exposure
Method: as §1

NQO1 [3] = test: NQO1 assay in human retinal pigment epithelial ARPE-19 cells; assay type: cell-based; conditions: 48 hours exposure
Method: as §1

NQO1 [4] = test: NQO1 assay in rat H9c2 myocardiocytes; assay type: cell-based; conditions: H9c2 cells, 48 hours exposure
Method: as §1

[5] = test system: Hepa1c1c7, ARPE-19, 308 and H9c2 cells; test: Cytotoxicity in all cell lines of the NQO1 assay (Hepa1c1c7, ARPE-19, 308, H9c2); assay type: cell-based; conditions: up to 20 μM, the highest concentration tested
heme oxygenase-1 (HO-1) = test: Real-time PCR of HO-1 mRNA in H9c2 cells; assay type: cell-based, rat; conditions: 10 μM, 6 hours
Method: (§2) Total mRNA from cells was extracted with TRIzol reagent (Invitrogen, Carlsbad, Calif.). […] was synthesized by the iScript cDNA Synthesis Kit (Bio-Rad Laboratories, Inc., Hercules, Calif.). Quantitative real-time PCR analysis was performed using the 7000 Sequence Detection System (Applied Biosystems, Foster City, Calif.). All primers were optimized and a final primer concentration of 300 nM was used for all reactions. Primer sequences for gene amplification were as follows: NAD(P)H: quinone oxidoreductase 1 (NQO1): fwd 5′-[…]-3′ (SEQ ID NO: 1), rev 5′-[…]-3′ (SEQ ID NO: 2); heme oxygenase-1 (HO-1): fwd 5′-[…]-3′ (SEQ ID NO: 3), rev 5′-[…]-3′ (SEQ ID NO: 4). (3-actin (endogenous control): fwd 5′-[…]-3′ (SEQ ID NO: 5), rev 5′-catcllllcacggttggcctta-3′ (SEQ ID NO: 6). The reactions were assembled using 5 ng of cDNA, 1× Power SYBR Green PCR Master Mix (Life Technologies), forward and reverse primers, and nuclease-free water. Relative mRNA expression was normalized to β-actin. Gene expression was calculated using the comparative 2^−ΔΔCT method.

NQO1 [6] = test: Real-time PCR of NQO1 mRNA in H9c2 cells; assay type: cell-based, rat; conditions: 10 μM, 6 hours
Method: as §2

NQO1 [7] = test: NQO1 induction in mouse skin by topical application; assay type: in vivo, SKH-1 hairless mice; conditions: three applications at 24-hour intervals
Method: Eleven-month-old female SKH-1 hairless mice (n=5) purchased from Charles River Laboratories were treated three times at 24-hour intervals on the backs with 0, 1 and 2 μmol of exemestane dissolved in 80% aqueous acetone (40 μL) over about a 2.0 cm^2 area. Mice were euthanized 24 hours after the final dose. Each treated segment of the dorsal skin was harvested, pulverized in liquid N2, and homogenized in 10 volumes of 0.25 M sucrose in 10 mM Tris buffer (pH 7.4). After three freeze-thaw cycles, the homogenates were centrifuged at 14,000 rpm and 4° C. for 30 minutes, and the supernatant fractions were analyzed for protein concentration and NQO1 activity. All animal experiments were in compliance with National Institutes of Health Guidelines and were approved by The Johns Hopkins University Animal Care and Use Committee.

ARPE-19 cells [8] = test: Intracellular ROS in ARPE-19 cells challenged with tert-butyl hydroperoxide; assay type: cell-based, human; conditions: ARPE-19, 24 hours pretreatment, 500 μM tert-butyl hydroperoxide
Method: (§3) ARPE-19 or MEF cells (10,000 per well) in 96-well plates (black-walled wells with clear bottom) were treated with serial dilutions of exemestane for 24 hours, and then incubated with 20 μM H2DCFDA for 30 minutes (Chem Res Toxicol 5: 227-231(1992)). After washing with Dulbecco's phosphate-buffered saline (DPBS) twice, the cells were challenged with 500 μM tert-butyl hydroperoxide for 30 minutes, and fluorescence intensity was measured in SpectraMax GeminiEM plate reader (Molecular Devices) with excitation at 485 nm and emission at 530 nm. Murine 308 keratinocytes (40,000 per well) were plated in 24-well plates and grown for 24 hours. Medium was then replaced with medium containing different concentrations of exemestane (0, 2, 4, 8 μM). After further incubation for 24 hours, cells were incubated with 20 μM H2DCFDA for 30 minutes, washed twice with DPBS twice and exposed to 5 or 10 J/cm^2 UVA (340-400 nm). Immediately after UVA irradiation, fluorescence intensity was measured by a microplate reader.

ARPE-19 cells [9] = test: Cytotoxicity of oxidative stresses in ARPE-19 cells (MTT); assay type: cell-based, human; conditions: ARPE-19, 24 hours pretreatment 0-20 μM
Method: (§4) ARPE-19 cells (10,000 cells/well) in 96-well plates were treated with serial dilutions of exemestane for 24 hours, and exposed to tert-butyl hydroperoxide or 4-hydroxynonenal in serum-free medium for 4 hours. The cells were then incubated in serum-free medium for additional 20 hours, washed with DPBS, and cell viability was determined using the colorimetric procedure based on the reduction of a water-soluble tetrazolium salt, 3-(4,5-dimethylthiazo-2-yl)-2,5-diphenyltetrazolium bromide (MTT). H9c2 cells (10,000 cells/well) in 96-well plates were treated with a range of concentrations of exemestane. After 24 hours, the cells were washed with DPBS, and exposed to 2 mM Na2S2O4 in serum-free medium for 1 hour. The cells were then washed with DPBS and incubated in complete medium containing 10% FBS for 24 hours, and then cell viability was measured by the MTT assay.

308 keratinocytes = test: UVA-stimulated ROS production in murine 308 keratinocytes; assay type: cell-based; conditions: 24 hours pretreatment, 5 or 10 J/cm^2 UVA
Method: as §3

H9c2 cells = test: Hypoxia/reoxygenation injury in H9c2 cardiomyocytes (MTT); assay type: cell-based, rat; conditions: H9c2, 24 hours pretreatment, 10 μM
Method: as §4

NQO1 [10] = test: NQO1 assay in wild-type MEF; assay type: cell-based, mouse; conditions: 48 hours
Method: as §1

NQO1 [11] = test: NQO1 assay in Nrf2-knockout MEF; assay type: cell-based, mouse; conditions: 48 hours
Method: as §1

WT MEF cells = test: ROS in wild-type MEF challenged with tert-butyl hydroperoxide; assay type: cell-based, mouse; conditions: 24 hours pretreatment
Method: as §3

Nrf2-/- MEF cells = test: ROS in Nrf2-/- MEF challenged with tert-butyl hydroperoxide; assay type: cell-based, mouse; conditions: 24 hours pretreatment
Method: as §3

iNOS [12] = test: LPS-activated iNOS (NO production, Griess reaction) in RAW264.7 cells; assay type: cell-based, murine; conditions: for pIC50: Mus musculus, RAW264.7, 10 ng/ml LPS, 48 h, read-out: IC50 of NO generation; for inhibition of LPS-stimulated NO production: RAW264.7, up to 20 μM
Method: RAW264.7 cells (20,000 per well) in 96-well plates, were grown for 24 hours, and exposed to serial dilutions of exemestane in the presence of 10 ng/ml LPS. […] The nitrite values of cells treated with LPS but without test compounds were used as controls.

RAW264.7 cells = test: Cytotoxicity in RAW264.7 cells; assay type: cell-based, murine; conditions: RAW264.7, 20 μM
iNOS [13] = test: LPS-activated iNOS (NO production) in wild-type mouse peritoneal macrophages; assay type: cell-based; conditions: Peritoneal macrophage, single agent, 100 ng/ml LPS, 24 hours, read-out: concentration required for 50% inhibition of LPS-stimulated nitric oxide generation
Method: (§5) Nrf2−/− mice on C57BL/6 background were initially established by Itoh et al. WT C57BL/6 mice were purchased from The Jackson Laboratory. Macrophages were harvested by lavage from the peritoneal cavity with DPBS 4 days after an i.p. injection of thioglycolate broth (Brewer, 4%). Isolated cells were plated into 96-well plates at a density of 10^5 cells per well in RPMI 1640 medium containing 2 mM Lglutamine, 10% heat-inactivated FBS, 100 U/ml […]. After 3 hours of incubation at 37° C. in 5% CO2. nonmacrophage cells were washed away with DPBS. The remaining macrophages were exposed immediately to serial dilutions of exemestane, sulforaphane or a combination of both compounds in the presence of 100 ng/ml LPS, and incubated for 24 hours before measurement of iNOS.
(§6) RAW264.7 cells (20,000 per well) in 96-well plates, were grown for 24 hours, and exposed to serial dilutions of exemestane in the presence of 10 ng/ml LPS. After 48-hour incubation, nitrite concentration in culture supernatant fractions of RAW264.7 cells or mouse peritoneal macrophages, measured as an indicator of iNOS induction, was determined by the Griess reaction (Cancer Res 58: 717-723 (1998), Proc Natl Acad Sci USA 105: 15926-15931 (2008)). The nitrite values of cells treated with LPS but without test compounds were used as controls.

iNOS [14] = test: LPS-activated iNOS (NO production) in Nrf2-/- mouse peritoneal macrophages; assay type: cell-based; conditions: LPS 100 ng/ml, 24 hours
Method: as §5, §6

NF-κB = test: LPS-induced NF-κB luciferase reporter in U937 3×κB-LUC cells; assay type: cell-based, human; conditions: LPS 10 ng/ml; for effect on LPS-activated NF-κB by itself: 6 hours, exemestane up to 30 μM; for effect on the inhibitory effect of sulforaphane on NF-κB activation: combined with sulforaphane
Method: Human monocytic U937-3×κB-LUC cells were transferred to medium with 2% heat-inactivated FBS in 24-well plates (1×10^6 cells/well) and incubated overnight. Then cells were incubated with exemestane, sulforaphane, combination of both compounds, or vehicle control for 30 minutes, and exposed to LPS (10 ng/ml). After an additional 6-hour incubation, cells were harvested and NF-κB-driven luciferase activity was assayed according to the manufacturer's instructions (Promega, Madison, Wis.). Luciferase activity was normalized to total protein concentration to compensate for possible cell toxicity of the compounds.

breast cancer = conditions: 4560 women at moderately increased risk for developing breast cancer; cited from earlier work
Hepa1c1c7 cells = test: Cytotoxicity in Hepa1c1c7 cells; assay type: cell-based, murine; conditions: 20 μM

| SMILES | CD value (concentration required to double the specific activity of NQO1) (NQO1 [1]) [µM] | CD value (concentration required to double the specific activity of NQO1) (NQO1 [2]) [µM] | CD value (concentration required to double the specific activity of NQO1) (NQO1 [3]) [µM] | CD value (concentration required to double the specific activity of NQO1) (NQO1 [4]) [µM] | NQO1 activity (NQO1 [10]) | NQO1 activity (NQO1 [11]) | pIC50 (iNOS [12]) | toxicity (RAW264.7 cells) | pIC50 (iNOS [13]) | effect on LPS-activated NF-κB by itself (NF-κB) | effect on the inhibitory effect of sulforaphane on NF-κB activation (NF-κB) | inducer activity for NQO1 (NQO1 [1]) | inhibition of LPS-stimulated NO production (iNOS [12]) | other results |
| --- | --- | --- | --- | --- | --- | --- | --- | --- | --- | --- | --- | --- | --- | --- |
| C=C1C[C@@H]2[C@H](CC[C@]3(C)C(=O)CC[C@@H]23)[C@@]2(C)C=CC(=O)C=C12 [Exemestane, 6-methyleneandrosta-1,4-diene-3,17-dione] | 0.65 | 0.65 | 2.2 | 2.9 | dose-dependently induced NQO1 activity | not affected | 5.60 | no toxicity | 4.62 | no effect | dramatically enhanced |  |  | cytotoxicity [5]: no cytotoxicity; increase in mRNA levels of HO-1 over control cells (heme oxygenase-1 (HO-1)): greater than 8 fold; increase in NQO1 mRNA expression over control cells (NQO1 [6]): 3 fold; elevation of NQO1 activity in homogenates of skin (NQO1 [7]; 0.5 μmol/cm^2 per application): 1.3 fold; elevation of NQO1 activity in homogenates of skin (NQO1 [7]; 1.0 μmol/cm^2 per application): 1.7 fold; ROS production stimulated by tert-butyl hydroperoxide (ARPE-19 cells [8]): suppressed ROS production; protection against cytotoxicity of tert-butyl hydroperoxide (ARPE-19 cells [9]; oxidant 0.2, 0.4, 0.8 mM for 4 hours): protected against cytotoxicity; protection against cytotoxicity of 4-hydroxynonenal (ARPE-19 cells [9]; oxidant 10, 20, 40 μM for 4 hours): protected against cytotoxicity; ROS in UVA-irradiated cells (308 keratinocytes): dose-dependently led to the reduction of ROS; cell viability after hypoxia/reoxygenation (H9c2 cells): almost totally restored cell viability; tert-butyl hydroperoxide-stimulated ROS levels (WT MEF cells): clearly suppressed; protection against tert-butyl hydroperoxide-stimulated ROS (Nrf2-/- MEF cells): no protection; inhibition of LPS-stimulated NO production in Nrf2-/- compared with WT macrophages (iNOS [14]): much less effective inhibitor; reduction of the risk of breast cancer relative to placebo (breast cancer): 65% |
| N#Cc1ccc(C(c2ccc(C#N)cc2)n2cncn2)cc1 [letrozole] |  |  |  |  |  |  |  | no toxicity |  | no effect | did not enhance | no inducer activity | did not inhibit |  |
| C[S+]([O-])CCCCN=C=S (stereo not drawn) [sulforaphane, R,S-sulforaphane] | 0.2 | 0.2 | 0.7 | 0.9 | dose-dependently induced NQO1 activity | not affected | 6.30 |  | 5.82 |  |  |  |  |  |
| CC/C(=C(\c1ccccc1)c1ccc(OCCN(C)C)cc1)c1ccccc1 [tamoxifen] |  |  |  |  |  |  |  |  |  |  |  | did not induce NQO1 activity | did not inhibit | cytotoxicity (Hepa1c1c7 cells): about 90%; cytotoxicity (RAW264.7 cells): 50% |
